Laboratory results reported in ChEMBL document CHEMBL1142734, “Biological properties of D- and L-1-deoxyazasugars” (J Med Chem, 2005).

Experiments:
[1] = molecular target: T1, Tissue alpha-L-fucosidase (Bos taurus, UniProt Q2KIM0); assay: Ki value against bovine alpha-L-fucosidase
T1 sequence (Q2KIM0 whole entry): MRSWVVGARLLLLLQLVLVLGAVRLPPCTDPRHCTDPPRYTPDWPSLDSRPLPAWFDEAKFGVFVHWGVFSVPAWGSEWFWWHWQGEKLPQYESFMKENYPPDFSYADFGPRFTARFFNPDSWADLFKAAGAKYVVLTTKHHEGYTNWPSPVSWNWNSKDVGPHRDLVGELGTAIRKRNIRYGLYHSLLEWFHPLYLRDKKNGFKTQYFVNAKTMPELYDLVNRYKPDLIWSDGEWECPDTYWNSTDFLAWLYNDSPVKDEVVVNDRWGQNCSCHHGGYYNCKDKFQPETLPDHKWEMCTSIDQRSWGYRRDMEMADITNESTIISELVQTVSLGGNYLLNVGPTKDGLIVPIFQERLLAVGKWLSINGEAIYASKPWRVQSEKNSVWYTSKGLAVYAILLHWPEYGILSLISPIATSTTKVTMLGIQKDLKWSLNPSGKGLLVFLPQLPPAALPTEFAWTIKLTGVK

[2] = molecular target: T2, Beta-galactosidase (Bos taurus) (UniProt Q58D55); assay: Percent inhibition of beta-galactosidase of bovine liver at 1000 uM
T2 sequence (whole entry): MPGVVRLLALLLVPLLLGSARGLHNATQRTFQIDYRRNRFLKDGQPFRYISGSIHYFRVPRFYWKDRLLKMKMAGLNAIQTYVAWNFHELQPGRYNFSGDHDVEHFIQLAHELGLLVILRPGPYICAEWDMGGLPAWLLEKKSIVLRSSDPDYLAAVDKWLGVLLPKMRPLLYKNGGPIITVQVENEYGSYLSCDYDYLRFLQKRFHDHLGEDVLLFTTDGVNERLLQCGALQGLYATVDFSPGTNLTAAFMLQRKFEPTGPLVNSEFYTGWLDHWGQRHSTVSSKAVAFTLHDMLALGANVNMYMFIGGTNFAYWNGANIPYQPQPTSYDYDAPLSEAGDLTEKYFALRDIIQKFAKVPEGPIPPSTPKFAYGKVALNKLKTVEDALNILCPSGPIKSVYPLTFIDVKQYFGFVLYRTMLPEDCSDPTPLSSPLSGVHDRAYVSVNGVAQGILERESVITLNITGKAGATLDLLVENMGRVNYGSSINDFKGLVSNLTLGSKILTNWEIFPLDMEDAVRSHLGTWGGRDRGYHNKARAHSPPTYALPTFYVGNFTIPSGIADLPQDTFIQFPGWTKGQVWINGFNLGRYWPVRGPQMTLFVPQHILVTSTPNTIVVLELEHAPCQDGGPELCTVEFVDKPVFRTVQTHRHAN

[3] = molecular target: T3, Beta-galactosidase (Rattus norvegicus) (UniProt D3ZUM4); assay: Percent inhibition of beta-galactosidase of rat epididymis at 1000 uM
T3 sequence (whole entry): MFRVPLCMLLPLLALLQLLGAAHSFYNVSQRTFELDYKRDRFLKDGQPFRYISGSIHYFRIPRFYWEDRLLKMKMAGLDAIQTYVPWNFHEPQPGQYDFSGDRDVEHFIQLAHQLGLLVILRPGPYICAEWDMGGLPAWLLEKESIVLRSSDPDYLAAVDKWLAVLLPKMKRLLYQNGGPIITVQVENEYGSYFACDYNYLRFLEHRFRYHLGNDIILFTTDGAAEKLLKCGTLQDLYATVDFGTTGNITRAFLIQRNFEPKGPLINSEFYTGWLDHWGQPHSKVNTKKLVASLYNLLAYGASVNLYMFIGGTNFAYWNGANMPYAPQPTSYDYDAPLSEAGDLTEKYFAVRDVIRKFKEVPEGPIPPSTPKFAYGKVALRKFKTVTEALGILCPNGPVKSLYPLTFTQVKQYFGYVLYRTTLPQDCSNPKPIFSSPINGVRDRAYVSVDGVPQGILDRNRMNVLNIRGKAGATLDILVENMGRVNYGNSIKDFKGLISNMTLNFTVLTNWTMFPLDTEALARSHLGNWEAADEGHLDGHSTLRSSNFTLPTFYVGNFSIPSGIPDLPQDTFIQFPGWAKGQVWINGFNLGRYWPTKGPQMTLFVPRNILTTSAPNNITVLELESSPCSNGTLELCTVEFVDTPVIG

[4] = molecular target: T4, Alpha-galactosidase C (Aspergillus niger) (UniProt Q9UUZ4); assay: Percent inhibition of alpha-galactosidase of Aspergillus niger at 1000 uM
T4 sequence (whole entry): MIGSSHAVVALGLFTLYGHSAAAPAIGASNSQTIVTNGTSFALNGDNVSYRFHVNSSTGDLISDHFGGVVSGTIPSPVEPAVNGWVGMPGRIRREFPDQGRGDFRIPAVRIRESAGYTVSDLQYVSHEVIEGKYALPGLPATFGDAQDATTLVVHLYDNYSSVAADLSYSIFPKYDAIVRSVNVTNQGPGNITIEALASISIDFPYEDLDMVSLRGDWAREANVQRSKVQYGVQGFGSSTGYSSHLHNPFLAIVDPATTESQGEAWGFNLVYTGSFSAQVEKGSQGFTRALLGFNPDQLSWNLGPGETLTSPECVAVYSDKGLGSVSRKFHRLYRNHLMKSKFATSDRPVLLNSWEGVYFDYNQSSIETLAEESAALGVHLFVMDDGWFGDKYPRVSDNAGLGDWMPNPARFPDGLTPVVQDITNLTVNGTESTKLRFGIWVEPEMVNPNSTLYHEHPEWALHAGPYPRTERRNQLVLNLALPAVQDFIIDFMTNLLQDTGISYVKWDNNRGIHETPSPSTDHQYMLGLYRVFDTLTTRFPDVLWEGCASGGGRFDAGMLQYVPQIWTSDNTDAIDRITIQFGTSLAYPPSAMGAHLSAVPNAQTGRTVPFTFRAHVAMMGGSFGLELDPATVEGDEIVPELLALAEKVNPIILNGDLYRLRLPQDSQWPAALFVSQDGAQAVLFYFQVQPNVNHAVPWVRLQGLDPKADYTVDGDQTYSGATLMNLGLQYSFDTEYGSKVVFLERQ

[5] = molecular target: Sucrase-isomaltase, intestinal (Rattus norvegicus) (UniProt P23739); settings: 1000 uM
Chain of Sucrase-isomaltase, intestinal (Rattus norvegicus) (P23739 1-1013 limits assumed): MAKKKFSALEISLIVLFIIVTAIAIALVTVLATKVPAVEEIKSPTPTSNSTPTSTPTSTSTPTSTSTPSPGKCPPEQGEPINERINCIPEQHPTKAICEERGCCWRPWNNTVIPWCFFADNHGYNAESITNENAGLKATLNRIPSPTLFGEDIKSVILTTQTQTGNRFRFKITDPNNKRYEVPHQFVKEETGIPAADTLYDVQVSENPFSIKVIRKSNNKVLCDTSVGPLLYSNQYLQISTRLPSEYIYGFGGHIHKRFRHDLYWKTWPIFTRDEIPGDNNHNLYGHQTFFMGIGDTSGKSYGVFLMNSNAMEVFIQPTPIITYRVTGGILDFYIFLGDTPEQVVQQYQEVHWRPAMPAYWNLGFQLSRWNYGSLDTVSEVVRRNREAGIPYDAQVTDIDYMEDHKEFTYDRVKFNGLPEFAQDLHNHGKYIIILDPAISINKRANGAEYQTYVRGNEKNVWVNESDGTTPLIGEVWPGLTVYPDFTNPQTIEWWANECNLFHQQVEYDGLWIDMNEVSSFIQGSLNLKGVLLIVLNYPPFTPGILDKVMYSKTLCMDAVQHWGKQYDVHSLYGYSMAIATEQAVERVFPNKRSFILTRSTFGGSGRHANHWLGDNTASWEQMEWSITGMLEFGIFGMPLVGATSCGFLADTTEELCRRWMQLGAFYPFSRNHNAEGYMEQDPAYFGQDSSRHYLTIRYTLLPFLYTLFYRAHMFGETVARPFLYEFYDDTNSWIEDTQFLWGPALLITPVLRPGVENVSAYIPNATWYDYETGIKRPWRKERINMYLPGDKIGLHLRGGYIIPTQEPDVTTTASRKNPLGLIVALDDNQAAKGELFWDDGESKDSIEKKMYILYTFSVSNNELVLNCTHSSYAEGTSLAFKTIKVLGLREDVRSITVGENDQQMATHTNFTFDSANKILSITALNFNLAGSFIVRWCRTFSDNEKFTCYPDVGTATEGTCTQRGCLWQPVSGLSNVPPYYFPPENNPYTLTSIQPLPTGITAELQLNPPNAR
Chain of Sucrase-isomaltase, intestinal (Rattus norvegicus) (P23739 1014-1841 limits assumed): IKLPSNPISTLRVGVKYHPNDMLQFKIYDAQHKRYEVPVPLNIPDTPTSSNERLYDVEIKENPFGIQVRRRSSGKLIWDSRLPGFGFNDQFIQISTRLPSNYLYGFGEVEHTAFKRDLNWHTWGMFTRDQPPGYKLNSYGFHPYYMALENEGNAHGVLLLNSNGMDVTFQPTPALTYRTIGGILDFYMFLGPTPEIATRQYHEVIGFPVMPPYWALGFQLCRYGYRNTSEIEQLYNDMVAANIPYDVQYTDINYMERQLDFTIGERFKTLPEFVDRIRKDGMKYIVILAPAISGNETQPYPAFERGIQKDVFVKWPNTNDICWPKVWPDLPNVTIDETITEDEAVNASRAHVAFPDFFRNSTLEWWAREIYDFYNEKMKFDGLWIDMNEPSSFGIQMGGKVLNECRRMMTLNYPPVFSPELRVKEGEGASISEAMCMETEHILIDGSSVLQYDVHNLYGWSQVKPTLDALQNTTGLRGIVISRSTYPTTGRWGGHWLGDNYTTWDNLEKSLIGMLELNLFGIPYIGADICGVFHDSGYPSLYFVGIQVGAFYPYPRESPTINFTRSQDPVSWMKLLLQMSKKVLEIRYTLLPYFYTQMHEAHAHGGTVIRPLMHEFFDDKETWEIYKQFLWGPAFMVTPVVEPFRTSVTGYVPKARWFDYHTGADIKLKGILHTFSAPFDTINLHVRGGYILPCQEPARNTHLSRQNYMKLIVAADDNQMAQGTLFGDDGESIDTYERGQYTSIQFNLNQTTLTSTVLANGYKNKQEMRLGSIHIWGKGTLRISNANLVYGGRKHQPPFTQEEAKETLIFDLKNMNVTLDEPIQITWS

[6] = molecular target: Alpha-galactosidase (Coffea arabica) (UniProt Q5DUH8); settings: 1000 uM
Chain of Alpha-galactosidase (Coffea arabica) (Q5DUH8 as listed by the source): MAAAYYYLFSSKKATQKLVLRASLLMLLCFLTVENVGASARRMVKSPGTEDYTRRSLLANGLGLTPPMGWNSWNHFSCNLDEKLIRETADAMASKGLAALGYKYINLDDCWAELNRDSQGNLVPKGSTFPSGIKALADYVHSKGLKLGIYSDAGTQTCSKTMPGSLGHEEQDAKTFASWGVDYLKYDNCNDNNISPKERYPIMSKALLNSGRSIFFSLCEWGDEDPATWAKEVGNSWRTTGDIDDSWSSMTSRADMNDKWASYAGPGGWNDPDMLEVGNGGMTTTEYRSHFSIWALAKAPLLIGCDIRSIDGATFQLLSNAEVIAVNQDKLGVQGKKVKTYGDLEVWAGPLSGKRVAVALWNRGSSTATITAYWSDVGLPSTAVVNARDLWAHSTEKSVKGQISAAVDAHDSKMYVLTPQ

[7] = molecular target: T5, Beta-mannosidase (Rattus norvegicus) (UniProt Q4FZV0); assay: Percent inhibition of beta-mannosidase of rat epididymis at 1000 uM
T5 sequence (whole entry): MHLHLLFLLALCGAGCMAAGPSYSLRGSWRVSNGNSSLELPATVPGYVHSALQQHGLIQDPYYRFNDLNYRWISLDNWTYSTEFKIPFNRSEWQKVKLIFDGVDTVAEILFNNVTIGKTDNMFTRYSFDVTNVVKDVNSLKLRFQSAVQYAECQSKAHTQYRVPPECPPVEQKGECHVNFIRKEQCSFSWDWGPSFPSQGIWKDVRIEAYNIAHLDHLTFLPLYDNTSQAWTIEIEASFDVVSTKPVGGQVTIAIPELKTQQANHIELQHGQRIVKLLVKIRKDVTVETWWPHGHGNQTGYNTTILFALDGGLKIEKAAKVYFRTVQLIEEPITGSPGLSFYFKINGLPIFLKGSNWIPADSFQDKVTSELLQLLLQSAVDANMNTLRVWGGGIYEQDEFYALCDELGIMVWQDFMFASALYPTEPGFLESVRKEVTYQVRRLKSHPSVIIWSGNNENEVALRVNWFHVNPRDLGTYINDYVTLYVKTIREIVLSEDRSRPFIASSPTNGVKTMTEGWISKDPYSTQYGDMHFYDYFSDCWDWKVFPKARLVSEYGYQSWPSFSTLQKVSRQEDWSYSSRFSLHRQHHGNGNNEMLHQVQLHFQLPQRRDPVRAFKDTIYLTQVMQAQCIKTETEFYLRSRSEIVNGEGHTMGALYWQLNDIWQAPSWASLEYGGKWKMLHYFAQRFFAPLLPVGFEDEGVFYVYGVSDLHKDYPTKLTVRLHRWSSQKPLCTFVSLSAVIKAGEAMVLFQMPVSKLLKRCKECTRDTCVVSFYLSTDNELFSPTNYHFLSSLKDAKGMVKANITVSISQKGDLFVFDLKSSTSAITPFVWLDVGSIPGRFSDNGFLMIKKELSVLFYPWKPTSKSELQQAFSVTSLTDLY

[8] = molecular target: T6, Tissue alpha-L-fucosidase (Bos taurus) (UniProt Q2KIM0); settings: 1000 uM
T6 sequence (whole entry): T1 sequence (Q2KIM0 whole entry)

Compound	Ki [1] [nM]	inhibition [2] [%]	inhibition [3] [%]	inhibition [4] [%]	inhibition [5] [%]	inhibition [6] [%]	inhibition [7] [%]	inhibition [8] [%]
C[C@@H]1NC[C@@H](O)[C@H](O)[C@@H]1O [DEOXYFUCONOJIRIMYCIN]	1.7							
OC[C@H]1NC[C@@H](O)[C@H](O)[C@@H]1O		< 50	< 50	< 50	< 50	< 50		
OC[C@@H]1NC[C@H](O)[C@@H](O)[C@H]1O		< 50	< 50	< 50	< 50	< 50	< 50	< 50
